The text below walks through data of patent publication US8455663B2, “Halosubstituted aryloxyalkylimidazolines for use as pesticides” (Syngenta Crop Protection LLC, priority 2007, dated 2013).

Read-outs that look alike come from different tables or passages of the source.

Type in all cases: in vivo
Test [1] concerns T. Urticae. As to the kind of experiment: Tetranychus urticae bean leaf disc test, comparison with prior art compounds A and B. The settings on record: 12.5 ppm spray on bean leaf discs; mixed ages; 8 days; egg, larval and adult mortality. An excerpt: 4.4.2 In a further test, the efficacy of one of the compounds giving 100% control in Example 4.4.1 above was compared to the efficacy of imidazoline compounds from the prior art (compounds A and B).
Bean leaf discs on agar in 24-well microtiter plates were sprayed with test solutions at an application rate of 12.5 ppm. After drying, the leaf discs are infested with mite populations of mixed ages. 8 days later, discs are checked for egg mortality, larval mortality, and adult mortality.

For test [2], the system named is Myzus persicae. As to the kind of experiment: Myzus persicae (green peach aphid) sunflower leaf disc spray test. To be noted: for pest or weed control at 200 ppm: Myzus persicae, foliar, 144 h, read-out: control of Myzus persicae. Here is the method: 4.2 Myzus Persicae (Green Peach Aphid):
Sunflower leaf discs were placed on agar in a 24-well microtiter plate and sprayed with test solutions at an application rate of 200 ppm. After drying, the leaf discs were infested with an aphid population of mixed ages. After an incubation period of 6 DAT, samples were checked for mortality.

In test [3] the test system is Myzus persicae. Description: Myzus persicae (green peach aphid) pea seedling root uptake test. The settings on record: for pest or weed control at 24 ppm: Myzus persicae, 144 h, read-out: control of Myzus persicae. An excerpt:
4.3 Myzus Persicae (Green Peach Aphid):
Roots of pea seedlings, infested with an aphid population of mixed ages, were placed directly in the test solutions of 24 ppm. 6 days after introduction, samples were checked for mortality.

In test [4] the test system is Heliothis virescens. Description: Heliothis virescens (tobacco budworm) egg/larvae test on artificial diet. To be noted: for pest or weed control at 200 ppm: Heliothis virescens, 96 h, read-out: control of Heliothis virescens. Here is the method:
4.1 Heliothis Virescens (Tobacco Budworm):
Eggs (0-24 h old) were placed in 24-well microtiter plate on artificial diet and treated with test solutions at an application rate of 200 ppm by pipetting. After an incubation period of 4 days, samples were checked for egg mortality, larval mortality, and growth regulation.

Test [5] relates to Tetranychus urticae. As to the kind of experiment: Tetranychus urticae (two-spotted spider mite) bean leaf disc spray test. To be noted: for pest or weed control at 200 ppm: Tetranychus urticae, foliar, 192 h, read-out: control of Tetranychus urticae. From the text: 4.4 Tetranychus Urticae (Two-Spotted Spider Mite):
4.4.1 Bean leaf discs on agar in 24-well microtiter plates were sprayed with test solutions at an application rate of 200 ppm. After drying, the leaf discs are infested with mite populations of mixed ages. 8 days later, discs are checked for egg mortality, larval mortality, and adult mortality.

The mark [6] stands for this setting: 200 ppm spray on sunflower leaf discs, mixed ages, 6 DAT, mortality.
[7] abbreviates: 24 ppm test solution, roots of infested pea seedlings, 6 days, mortality.
Setting [8] is: 200 ppm by pipetting on eggs (0-24 h old) on artificial diet, 4 days, egg mortality, larval mortality, growth regulation.
Where [9] appears, read: 200 ppm spray on bean leaf discs, mixed ages, 8 days, egg, larval and adult mortality.

`CCC(Oc1cccc(Cl)c1Cl)C1=NCCN1` (stereo not shown) [A] gave a Control % in test [1] of 0%.
The same measure, in the same setting: the result for `CCC(Oc1cccc(C)c1Cl)C1=NCCN1` (stereo not shown) [B] reads 50%.
Consider `CCC(Oc1cccc(C(F)F)c1Cl)C1=NCCN1` (stereo not shown) [Compound 1.002, 2-[1-(2-Chloro-3-difluoromethyl-phenoxy)-propyl]-4,5-dihydro-1H-imidazole], for which the pest or weed control at 200 ppm in test [2] amounted to 100%; in test [4] it was 0%; in test [5] it was 100%. The pest or weed control at 24 ppm in test [3] is 80%.
Turning to `CCC(Oc1cccc(C(F)F)c1Cl)C1=NCCN1C(=O)OC(C)(C)C` (stereo not shown) [Compound 1.003], the values for the pest or weed control at 200 ppm in test [2] (setting [6]), in test [4] (setting [8]) and in test [5] (setting [9]) were 100%, 0% and 0%, respectively. Also, in test [3] (setting [7]), the pest or weed control at 24 ppm came out at 0%.
As to `CCC(Oc1cccc(CO)c1Cl)C1=NCCN1` (stereo not shown) [Compound 1.005], the pest or weed control at 200 ppm in test [2] (setting [6]), in test [4] (setting [8]) and in test [5] (setting [9]) was 0% throughout. In test [3] (setting [7]), the pest or weed control at 24 ppm came out at 0%.
Regarding `CCC(Oc1cccc(CF)c1Cl)C1=NCCN1` (stereo not shown) [Compound 1.006], the pest or weed control at 200 ppm in test [2] (setting [6]), in test [4] (setting [8]) and in test [5] (setting [9]) was 100% throughout. In addition, the pest or weed control at 24 ppm in test [3] (setting [7]) was 80%.
Consider `CCC(Oc1cccc(CO)c1Cl)C1=NCCN1C(=O)OC(C)(C)C` (stereo not shown) [Compound 1.007], for which the pest or weed control at 200 ppm in test [2] (setting [6]), in test [4] (setting [8]) and in test [5] (setting [9]) was 0% throughout.
Take `CCC(Oc1cccc(COC)c1Cl)C1=NCCN1` (stereo not shown) [Compound 1.008]: the “control of Myzus persicae” value in test [2] (setting [6]) was determined as 0%. In addition, the “control of Heliothis virescens” value in test [4] (setting [8]) was 80%. Besides, the “control of Tetranychus urticae” value in test [5] (setting [9]) is 0%.
Turning to `C#Cc1cccc(OC(CC)C2=NCCN2)c1Cl` (stereo not shown) [Compound 1.011, 2-[1-(2-Chloro-3-ethynyl-phenoxy)-propyl]-4,5-dihydro-1H-imidazole], the pest or weed control at 200 ppm in test [2] (setting [6]) is 50%; in test [4] (setting [8]) it was 50%; in test [5] (setting [9]) it was 0%.
In the case of `C=Cc1cccc(OC(CC)C2=NCCN2)c1Cl` (stereo not shown) [Compound 1.012], the pest or weed control at 200 ppm in test [2] (setting [6]), in test [4] (setting [8]) and in test [5] (setting [9]) was 0% throughout.
Turning to `CC(Oc1cccc(C(F)(F)F)c1Cl)C1=NCCN1` (stereo not shown) [Compound 1.014], the pest or weed control at 200 ppm in test [2] (setting [6]) stood at 100%; in test [4] (setting [8]), 80%; in test [5] (setting [9]) it was 80%. Besides, in test [3] (setting [7]), the pest or weed control at 24 ppm was determined as 50%.
Consider `CCCC(Oc1cccc(C(F)(F)F)c1Cl)C1=NCCN1` (stereo not shown) [Compound 1.015], for which the results for the “control of Myzus persicae” value in test [2] (setting [6]) and in test [3] (setting [7]) were 100% and 50%, respectively. In test [4] (setting [8]), the “control of Heliothis virescens” value was 100%. In test [5] (setting [9]), the “control of Tetranychus urticae” value was 100%.
`CC(C)C(Oc1cccc(C(F)(F)F)c1Cl)C1=NCCN1` (stereo not shown) [Compound 1.016]: the pest or weed control at 200 ppm in test [2] (setting [6]) stood at 100%; in test [4] (setting [8]), 0%; in test [5] (setting [9]), 100%. Also, the pest or weed control at 24 ppm in test [3] (setting [7]) was 80%.
`C=Cc1cccc(OC(CC)C2=NCCN2C(=O)OC(C)(C)C)c1Cl` (stereo not shown) [Compound 1.017]: the pest or weed control at 200 ppm in test [2] (setting [6]), in test [4] (setting [8]) and in test [5] (setting [9]) was 0% each time.
Turning to `CCC(Oc1cccc(CSC)c1Cl)C1=NCCN1` (stereo not shown) [Compound 1.019], the “control of Myzus persicae” value in test [2] (setting [6]) came to 0%. In test [4] (setting [8]), the “control of Heliothis virescens” value came to 0%. For the same compound, in test [5] (setting [9]), the “control of Tetranychus urticae” value was found to be 0%.
Consider `CCC(Oc1cccc(C(F)(F)F)c1I)C1=NCCN1.O=C(O)/C=C\C(=O)O` (stereo not shown) [Compound 1.020], for which the “control of Myzus persicae” value is given as 100% in test [2] (setting [6]) and 80% in test [3] (setting [7]). Besides, in test [4] (setting [8]), the “control of Heliothis virescens” value turned out to be 0%. In test [5] (setting [9]), the “control of Tetranychus urticae” value was found to be 100%.
`CCCC(Oc1cccc(Br)c1Br)C1=NCCN1` (stereo not shown) [Compound 1.021]: the pest or weed control at 200 ppm in test [2] (setting [6]), in test [4] (setting [8]) and in test [5] (setting [9]) was 100% each time. Also, the pest or weed control at 24 ppm in test [3] (setting [7]) was found to be 0%.
As to `CCCC(Oc1cccc(I)c1Br)C1=NCCN1` (stereo not shown) [Compound 1.022], the pest or weed control at 200 ppm came to 100% in test [2] (setting [6]), 50% in test [4] (setting [8]) and 80% in test [5] (setting [9]).
As to `CC(Oc1cccc(C(F)F)c1Cl)C1=NCCN1` (stereo not shown) [Compound 1.023], the figures for the pest or weed control at 200 ppm in test [2] (setting [6]), in test [4] (setting [8]) and in test [5] (setting [9]) were 100%, 80% and 0%, respectively. Besides, in test [3] (setting [7]), the pest or weed control at 24 ppm is 0%.
`CCC(Oc1cccc(C#N)c1Cl)C1=NCCN1` (stereo not shown) [Compound 1.024]: the pest or weed control at 200 ppm in test [2] (setting [6]) was found to be 80%; in test [4] (setting [8]), 0%; in test [5] (setting [9]), 100%. In test [3] (setting [7]), the pest or weed control at 24 ppm stood at 50%.
With `CCC(Oc1cccc(C#N)c1Cl)C1=NCCN1C(=O)OC(C)(C)C` (stereo not shown) [Compound 1.025], the pest or weed control at 200 ppm in test [2] (setting [6]) worked out at 0%; in test [4] (setting [8]) it was 0%; in test [5] (setting [9]) it was 50%.
Take `CCCCC(Oc1cccc(C(F)(F)F)c1Cl)C1=NCCN1` (stereo not shown) [Compound 1.027]: the pest or weed control at 200 ppm in test [2] (setting [6]) was determined as 80%; in test [4] (setting [8]), 50%; in test [5] (setting [9]), 100%. In addition, the pest or weed control at 24 ppm in test [3] (setting [7]) is 0%.
As for `CCCC(Oc1cccc(C(F)F)c1Cl)C1=NCCN1` (stereo not shown) [Compound 1.028], the figures for the pest or weed control at 200 ppm in test [2] (setting [6]), in test [4] (setting [8]) and in test [5] (setting [9]) were 100%, 80% and 100%, respectively. Further, the pest or weed control at 24 ppm in test [3] (setting [7]) was determined as 100%.
As for `CCCCC(Oc1cccc(C(F)F)c1Cl)C1=NCCN1` (stereo not shown) [Compound 1.029], the pest or weed control at 200 ppm in test [4] (setting [8]) came to 80%.
Turning to `CC(C)C(Oc1cccc(C(F)F)c1Cl)C1=NCCN1` (stereo not shown) [Compound 1.030], the pest or weed control at 200 ppm in test [2] (setting [6]) was 100%; in test [4] (setting [8]), 0%; in test [5] (setting [9]), 100%. Besides, the pest or weed control at 24 ppm in test [3] (setting [7]) came out at 80%.
Take `CCCC(Oc1cccc(CF)c1Cl)C1=NCCN1` (stereo not shown) [Compound 1.031]: the values for the pest or weed control at 200 ppm in test [2] (setting [6]), in test [4] (setting [8]) and in test [5] (setting [9]) were 100%, 0% and 100%, respectively. In addition, the pest or weed control at 24 ppm in test [3] (setting [7]) was 80%.
`CCCCC(Oc1cccc(CF)c1Cl)C1=NCCN1` (stereo not shown) [Compound 1.032]: the pest or weed control at 200 ppm in test [2] (setting [6]) was 100%; in test [4] (setting [8]) it was 0%; in test [5] (setting [9]), 0%. The pest or weed control at 24 ppm in test [3] (setting [7]) stood at 50%.
As to `CCCC(Oc1cccc(I)c1Cl)C1=NCCN1` (stereo not shown) [Compound 1.033], the values for the pest or weed control at 200 ppm in test [2] (setting [6]), in test [4] (setting [8]) and in test [5] (setting [9]) were 100%, 80% and 80%, respectively. Moreover, the pest or weed control at 24 ppm in test [3] (setting [7]) stood at 0%.
`CCC(Oc1cccc(CCl)c1Cl)C1=NCCN1C(=O)OC(C)(C)C` (stereo not shown) [Compound 1.034]: the “control of Myzus persicae” value in test [2] (setting [6]) came out at 0%. Also, the “control of Heliothis virescens” value in test [4] (setting [8]) was found to be 100%. In addition, the “control of Tetranychus urticae” value in test [5] (setting [9]) was determined as 0%.
Consider `CCC(Oc1cccc(C[S+](C)[O-])c1Cl)C1=NCCN1` (stereo not shown) [Compound 1.035], for which, in test [2] (setting [6]), the “control of Myzus persicae” value is listed as 0%. For the same compound, in test [4] (setting [8]), the “control of Heliothis virescens” value turned out to be 0%. The “control of Tetranychus urticae” value in test [5] (setting [9]) was found to be 0%.
Turning to `CCCC(Oc1cccc(Br)c1Cl)C1=NCCN1` (stereo not shown) [Compound 1.036], the pest or weed control at 200 ppm in test [2] (setting [6]), in test [4] (setting [8]) and in test [5] (setting [9]) was 100% each time. Moreover, in test [3] (setting [7]), the pest or weed control at 24 ppm came to 0%.
`CC(C)C(Oc1cccc(CF)c1Cl)C1=NCCN1` (stereo not shown) [Compound 1.037]: the pest or weed control at 200 ppm came out at 100% in test [2] (setting [6]), 80% in test [4] (setting [8]) and 100% in test [5] (setting [9]). Besides, the pest or weed control at 24 ppm in test [3] (setting [7]) was found to be 50%.
